# Data as given in ChEMBL document CHEMBL1201862, “PubChem BioAssay data set” (2004).
# Active and inactive are the calls of the source. For most assays here, no stated cut-off is given here; in the data, actives have a measured EC50 and inactives only a lower limit.
# How the values were obtained:
# [1] = inhibitors of firefly luciferase expression or activity, dose response, H4 neuroglioma cells, luminescence (AID 1990); assay type: functional, cell-based
# [2] = Luminescence Cell-Based Dose Response HTS to Identify Inhibitors of 5'UTR Stem-Loop Driven Prion Protein mRNA Translation in H4 Neuroglioblastoma Cells. [Related pubchem assays: 1827 (Project Summary), 1813 (Primary HTS)]; assay type: functional
# [3] = inhibitors of SNCA 5'UTR-driven reporter translation, confirmation, H4 neuroglioma cells, luminescence (AID 1988); assay type: functional, cell-based
# [4] = biological target: T1, Cytochrome P450 1A2 (Homo sapiens, UniProt P05177);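 further: PubChem cytochrome P450 panel assay, CYP1A2 panel member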
# T1 sequence (P05177 whole entry): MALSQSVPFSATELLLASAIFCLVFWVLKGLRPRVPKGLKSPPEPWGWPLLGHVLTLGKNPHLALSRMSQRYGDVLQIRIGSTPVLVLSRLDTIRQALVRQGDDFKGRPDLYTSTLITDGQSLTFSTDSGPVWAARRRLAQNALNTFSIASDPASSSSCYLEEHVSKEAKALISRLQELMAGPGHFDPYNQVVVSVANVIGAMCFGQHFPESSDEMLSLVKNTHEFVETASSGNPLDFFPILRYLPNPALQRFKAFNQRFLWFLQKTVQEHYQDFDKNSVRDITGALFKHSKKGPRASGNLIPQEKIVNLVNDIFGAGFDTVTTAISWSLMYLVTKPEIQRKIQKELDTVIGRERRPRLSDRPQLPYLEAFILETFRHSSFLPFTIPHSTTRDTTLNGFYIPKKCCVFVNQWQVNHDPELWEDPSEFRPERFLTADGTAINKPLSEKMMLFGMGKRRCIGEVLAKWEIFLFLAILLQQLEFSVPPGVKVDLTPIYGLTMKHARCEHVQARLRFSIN
# [5] = biological target: Cytochrome P450 3A4 (Homo sapiens, UniProt P08684);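 further: CYP3A4 tested as one member of a cytochrome P450 panel screen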
# Chain of Cytochrome P450 3A4 (P08684 whole entry): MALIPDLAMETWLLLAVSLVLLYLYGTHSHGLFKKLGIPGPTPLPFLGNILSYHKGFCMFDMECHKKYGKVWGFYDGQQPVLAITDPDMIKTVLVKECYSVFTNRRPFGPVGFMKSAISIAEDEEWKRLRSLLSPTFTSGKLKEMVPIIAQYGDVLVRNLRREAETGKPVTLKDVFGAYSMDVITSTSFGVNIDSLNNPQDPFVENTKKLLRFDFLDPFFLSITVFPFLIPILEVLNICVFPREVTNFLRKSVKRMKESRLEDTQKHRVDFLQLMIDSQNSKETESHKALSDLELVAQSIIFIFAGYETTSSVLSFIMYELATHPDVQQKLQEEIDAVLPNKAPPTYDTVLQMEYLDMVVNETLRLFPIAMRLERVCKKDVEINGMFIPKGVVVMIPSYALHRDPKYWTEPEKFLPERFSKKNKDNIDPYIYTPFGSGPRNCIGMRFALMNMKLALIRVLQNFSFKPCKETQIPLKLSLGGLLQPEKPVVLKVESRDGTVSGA
# [6] = biological target: Cytochrome P450 2C9 (Homo sapiens, UniProt P11712)
# Chain of Cytochrome P450 2C9 (P11712 whole entry): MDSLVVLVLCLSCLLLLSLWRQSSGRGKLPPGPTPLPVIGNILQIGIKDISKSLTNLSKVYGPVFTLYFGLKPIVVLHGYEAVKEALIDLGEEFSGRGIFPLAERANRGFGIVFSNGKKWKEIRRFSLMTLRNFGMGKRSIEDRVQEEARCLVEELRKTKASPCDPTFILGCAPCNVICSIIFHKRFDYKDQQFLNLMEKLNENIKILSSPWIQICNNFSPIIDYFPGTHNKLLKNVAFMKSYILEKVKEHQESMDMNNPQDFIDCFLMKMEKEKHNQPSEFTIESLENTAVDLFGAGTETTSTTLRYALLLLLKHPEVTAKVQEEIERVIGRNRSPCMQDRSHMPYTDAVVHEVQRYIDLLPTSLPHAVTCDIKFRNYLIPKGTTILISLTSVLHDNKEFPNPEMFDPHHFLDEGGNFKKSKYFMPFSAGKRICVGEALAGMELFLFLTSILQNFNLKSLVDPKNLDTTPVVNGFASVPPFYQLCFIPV
# [7] = biological target: Cytochrome P450 2D6 (Homo sapiens, UniProt P10635);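 further: CYP2D6 member of a cytochrome P450 panel assay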
# Chain of Cytochrome P450 2D6 (P10635 whole entry): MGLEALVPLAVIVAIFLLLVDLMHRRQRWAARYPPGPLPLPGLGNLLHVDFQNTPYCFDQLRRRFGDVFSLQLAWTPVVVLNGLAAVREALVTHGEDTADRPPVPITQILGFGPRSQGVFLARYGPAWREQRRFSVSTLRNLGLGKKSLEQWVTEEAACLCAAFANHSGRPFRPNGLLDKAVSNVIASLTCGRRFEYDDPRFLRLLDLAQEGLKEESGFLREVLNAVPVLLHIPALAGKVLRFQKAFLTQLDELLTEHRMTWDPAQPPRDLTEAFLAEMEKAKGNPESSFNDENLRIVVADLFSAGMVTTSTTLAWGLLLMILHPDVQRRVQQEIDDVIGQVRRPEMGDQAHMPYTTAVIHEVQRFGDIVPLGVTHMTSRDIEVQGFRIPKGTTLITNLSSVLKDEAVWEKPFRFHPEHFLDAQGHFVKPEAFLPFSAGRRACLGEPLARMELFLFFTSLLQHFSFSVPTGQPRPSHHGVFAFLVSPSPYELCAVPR
# [8] = biological target: T2, Heat shock factor protein 1 (Mus musculus, UniProt P38532); experiment: inhibition of MG132-induced HSE-luciferase signal, confirmation, cell-based, NIH3T3, luminescence, dose retest (AID 2382); assay type: functional;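 further: NIH3T3 fibroblasts with HSF1-driven luciferase reporter stressed by proteasome inhibitor MG132; luminescence from HSF1-driven luciferase expression after 8 hours of MG132 stress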
# T2 sequence (P38532 whole entry): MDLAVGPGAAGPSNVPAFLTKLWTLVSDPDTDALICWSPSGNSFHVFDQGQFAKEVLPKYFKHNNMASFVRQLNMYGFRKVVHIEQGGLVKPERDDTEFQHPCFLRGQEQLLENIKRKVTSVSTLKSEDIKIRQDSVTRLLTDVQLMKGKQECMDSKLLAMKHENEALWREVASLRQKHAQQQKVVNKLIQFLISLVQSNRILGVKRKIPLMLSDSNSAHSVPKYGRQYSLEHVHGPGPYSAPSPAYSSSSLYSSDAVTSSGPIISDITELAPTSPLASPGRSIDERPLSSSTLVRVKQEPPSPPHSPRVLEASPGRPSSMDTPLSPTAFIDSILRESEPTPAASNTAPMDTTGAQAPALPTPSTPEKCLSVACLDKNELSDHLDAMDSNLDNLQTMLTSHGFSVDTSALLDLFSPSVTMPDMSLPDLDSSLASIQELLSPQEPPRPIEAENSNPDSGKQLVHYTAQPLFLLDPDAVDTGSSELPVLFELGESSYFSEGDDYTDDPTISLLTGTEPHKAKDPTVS
# [9] = tested on: INS1; experiment: beta cell apoptosis inhibitors, cytokine rescue, dose response, luminescence, retest (AID 449756); assay type: functional, cell-based; conditions: Rattus norvegicus;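 further: cell death triggered by IL-1 beta plus TNF-alpha plus IFN-gamma mixture; protective hits raise ATP signal compared with cytokine alone wells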
# [10] = inhibitors of intracellular T. cruzi replication, confirmation, NIH3T3 host cells, beta-gal luminescence (AID 2044); assay type: functional, cell-based;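 further: intracellular parasites grown in NIH/3T3 mouse fibroblasts as host cells; luminescent beta-galactosidase reporter signal from transgenic T. cruzi replicating inside host cells; inhibitors lower the luminescence signal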
# [11] = cytotoxicity toward NIH3T3 fibroblasts, dose response, counter-screen, cell-based, ATP luminescence, mouse fibroblasts (AID 2010); assay type: functional;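 further: cells exposed to compound for about 90 hours before reading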
# [12] = Luminescence Cell-Based Dose Retest to Confirm Inhibitors of Cancer Stem Cells. [Related pubchem assays (depositor defined):AID2717, AID2721]; assay type: functional; conditions: Homo sapiens
# [13] = tested on: Streptococcus sp. 'group A'; experiment: growth inhibition of control SK(-) GAS strain, dose response, counter-screen for streptokinase expression inhibitor project, luminescence, kanamycin, BacTiterGlo, confirmation (AID 1900); assay type: functional, organism-based
# [14] = biological target: T3, Streptokinase A (Streptococcus pyogenes serotype M1, UniProt P10520); experiment: S. pyogenes streptokinase expression inhibitors, potency, dose response, plasminogen activation absorbance, OD405 (AID 1914); assay type: functional, Streptococcus pyogenes M1 GAS;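 further: secreted streptokinase activity via plasminogen activation per viability signal from cell pellet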
# T3 sequence (P10520 whole entry): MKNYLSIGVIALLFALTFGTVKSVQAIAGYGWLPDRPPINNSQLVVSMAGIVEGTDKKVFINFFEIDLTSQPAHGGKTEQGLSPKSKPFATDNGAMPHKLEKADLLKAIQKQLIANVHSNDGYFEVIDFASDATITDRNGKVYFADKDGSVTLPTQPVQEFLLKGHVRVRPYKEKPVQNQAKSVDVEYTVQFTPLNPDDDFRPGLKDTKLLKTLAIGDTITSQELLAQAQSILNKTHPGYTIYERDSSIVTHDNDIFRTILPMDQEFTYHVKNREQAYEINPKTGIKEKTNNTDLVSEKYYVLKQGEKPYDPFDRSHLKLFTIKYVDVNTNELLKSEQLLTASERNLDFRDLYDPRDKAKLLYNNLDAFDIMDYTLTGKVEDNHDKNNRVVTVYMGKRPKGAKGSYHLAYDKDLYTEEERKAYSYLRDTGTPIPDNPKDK
# [15] = tested on: Streptococcus; experiment: Group A Streptococcus viability loss, dose response, counter-screen for streptokinase expression inhibitor project, luminescence, BacTiterGlo (AID 1915); assay type: functional, organism-based;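 further: potency for reduction of bacterial viability or growth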
smiles,measurement,setting,value
CCOC(=O)c1cc(CC)sc1NC(=O)CSc1nc2ccccc2c(=O)n1Cc1ccco1,EC50,[1],> 120 µM (not active)
same,EC50,[2],> 120 µM (not active)
same,EC50,[3],17.8 µM (active)
COc1ccc(-n2c(=O)c(-c3cccs3)nc3cnc(N4CCOCC4)nc32)cc1,AC50,[4],12.6 µM (inconclusive)
same,AC50,[5],20 µM (inconclusive)
same,AC50,[6],20 µM (inconclusive)
COc1ccccc1-c1nccc(NCc2cccnc2)n1,AC50,[7],20 µM (inconclusive)
O=[N+]([O-])c1ccccc1Nc1cccnc1,EC50,[8],> 195 µM (not active)
Cc1ccc(S(=O)(=O)N2CCCCC2c2cccnc2)c(C)c1C (configuration not stated),AC50,[9],57.2 µM (active)
CCC(c1nnnn1CCc1ccccc1)N(Cc1ccco1)Cc1cc2c(C)ccc(C)c2nc1O (configuration not stated),EC50,[1],> 120 µM (not active)
same,EC50,[2],> 120 µM (not active)
same,EC50,[3],> 120 µM (not active)
same,EC50,[10],1.41 µM (active)
same,EC50,[11],> 60 µM (not active)
CC/C(NCc1cc(OC)cc(OC)c1)=C1/C(=O)NC(=O)N(C2CCCCC2)C1=O,EC50,[1],16 µM (active)
same,EC50,[2],> 120 µM (not active)
same,EC50,[3],27.2 µM (active)
CC(=O)NCCNc1ccnc(-c2ccccc2C(F)(F)F)n1,AC50,[4],15.8 µM (inconclusive)
same,AC50,[5],15.8 µM (inconclusive)
CC1CC(C)CN(C(=O)c2ccc(CSc3nc4cc[nH]cc-4n3)cc2)C1 (configuration not stated),EC50,[8],> 195 µM (not active)
COc1ccc(C(=O)NCC2(c3ccccc3)CCCC2)c(OC)c1,AC50,[12],1.22 µM (active)
Cc1cc(=O)oc2c(OS(C)(=O)=O)c(OS(C)(=O)=O)ccc12,AC50,[4],0.794 µM (inconclusive)
CC(C)CNc1nc(N)c([N+](=O)[O-])c(NCC2CCCO2)n1 (configuration not stated),EC50,[1],13.5 µM (active)
same,EC50,[2],4.6 µM (active)
same,EC50,[3],> 120 µM (not active)
Cc1cc(C)n2nc(-c3sccc3-n3cccc3)cc2n1,AC50,[7],35.5 µM (inconclusive)
same,AC50,[5],3.55 µM (inconclusive)
Cc1ccc(C(=O)NC(=C(Cl)Cl)S(=O)(=O)c2ccccc2)cc1,AC50,[12],3.29 µM (active)
CCCCC(=O)Nc1ccc(C(=O)NCCc2ccc(S(N)(=O)=O)cc2)cc1,EC50,[8],> 195 µM (not active)
COc1ccccc1N1CCN(Cc2cc(=O)n3ccsc3n2)CC1,AC50,[7],22.4 µM (inconclusive)
COC(=O)N1CCC2(CCCN(Cc3nccs3)C2)CC1,AC50,[7],12.6 µM (inconclusive)
same,AC50,[5],15.8 µM (inconclusive)
CC1(C)CC(=O)C(C(c2cccnc2)C2C(=O)CC(C)(C)CC2=O)C(=O)C1,EC50,[8],> 195 µM (not active)
COc1cccc(OC)c1C(=O)NC(=S)N1CCN(c2ccc(C(F)(F)F)cc2[N+](=O)[O-])CC1,AC50,[7],20 µM (inconclusive)
COc1ccc(S(=O)(=O)N2CCCN(CCC(=O)Nc3cccc(C(F)(F)F)c3)CC2)cc1,AC50,[4],15.8 µM (inconclusive)
same,AC50,[5],39.8 µM (inconclusive)
same,AC50,[6],39.8 µM (inconclusive)
CCC(=O)Nc1cc(-c2nn(CC(=O)N3CCCCC3)c(=O)c3ccccc23)ccc1N1CCOCC1,EC50,[8],> 195 µM (not active)
COc1cccc(C(=O)/C=C/c2ccc(N3CCCCC3)c([N+](=O)[O-])c2)c1,AC50,[12],7.86 µM (active)
CC(=O)c1cccc(NC(=O)CSc2ccc(-c3ccccn3)nn2)c1,EC50,[1],> 120 µM (not active)
same,EC50,[2],14.6 µM (active)
same,EC50,[3],> 120 µM (not active)
COc1ccccc1-c1nnc(SCC(=O)N2CC(C)CC(C)C2)o1 (configuration not stated),EC50,[1],> 120 µM (not active)
same,EC50,[2],> 120 µM (not active)
same,EC50,[3],> 120 µM (not active)
O=C(NC1CCCCC1)C1CCN(C(=O)c2ccc(-c3ccccc3)cc2)CC1,EC50,[1],> 120 µM (not active)
same,EC50,[2],> 120 µM (not active)
same,EC50,[3],77.5 µM (active)
COc1ccccc1-c1nc(NCCNC(C)=O)c2ccccc2n1,AC50,[4],15.8 µM (inconclusive)
COC(=O)c1ccc(CSc2nc3cc(Cl)ccc3s2)o1,AC50,[7],20 µM (inconclusive)
same,AC50,[5],25.1 µM (inconclusive)
CS(=O)(=O)Nc1ccc(Nc2c3ccccc3nc3ccccc23)cc1,AC50,[7],3.16 µM (inconclusive)
same,AC50,[6],6.31 µM (inconclusive)
CN(C)C(=O)c1ccc(NC(=O)c2cccnc2)cc1,AC50,[9],6.14 µM (active)
COc1ccc(C(O)c2nccn2Cc2ccccc2)cc1 (configuration not stated),AC50,[4],6.31 µM (inconclusive)
c1ccc(N(c2ccccc2)c2nc(N3CCCC3)nc(-n3ccnc3)n2)cc1,EC50,[13],5.55 µM (active)
same,EC50,[14],> 150 µM (not active)
same,EC50,[10],1.84 µM (active)
same,EC50,[11],> 60 µM (not active)
same,EC50,[15],5.49 µM (active)
same,AC50,[12],5.16 µM (active)
Cc1cccc(N2CC(=O)C(c3nc4ccccc4n3C)=C2N)c1,AC50,[4],14.1 µM (inconclusive)
CCNc1ncc2nc(CCc3ccccc3)c(=O)n(Cc3cccc(OC)c3)c2n1,AC50,[4],12.6 µM (inconclusive)
c1nc(NCCc2c[nH]cn2)c2nc[nH]c2n1,AC50,[4],5.01 µM (inconclusive)
same,AC50,[5],3.98 µM (inconclusive)
Cn1nnc2cc(C(=O)NC(C)(C)C)ccc21,EC50,[8],83.9 µM (active)
OCCCn1c(CCNc2nc(-c3ccc(Cl)cc3)cs2)nc2cc(C(F)(F)F)ccc21,AC50,[12],23.9 µM (active)
COC(=O)[C@H](CC(C)C)N(Cc1ccccc1)S(=O)(=O)N(Cc1ccc(OC)cc1)[C@@H](CC(C)C)C(=O)OC,AC50,[9],5.77 µM (active)
COc1ccc(/C=N/NC(=S)Nc2ccccc2[N+](=O)[O-])cc1O,AC50,[12],4.87 µM (active)
Clc1ccc(Sc2ccc(/C=N/n3cnnc3)o2)cc1,AC50,[7],15.8 µM (inconclusive)
CN1CCN(C(=O)O[C@@H]2c3nccnc3C(=O)N2c2ccc(Cl)cn2)CC1,AC50,[4],39.8 µM (inconclusive)
C=CCn1c(CNc2ccccc2)nnc1SCC(=O)N/N=C/c1ccccc1O,EC50,[1],18.3 µM (active)
same,EC50,[2],> 120 µM (not active)
same,EC50,[3],> 120 µM (not active)
C/C(=N\NC(=O)c1ccc(C)cc1)c1c(C)nn(-c2ccccc2)c1O,EC50,[13],3.96 µM (active)
same,EC50,[14],> 150 µM (not active)
same,EC50,[15],14.7 µM (active)
same,AC50,[9],3.15 µM (active)
O=S(=O)(/N=C(/c1ccccc1Cl)N1CCOCC1)c1ccccc1,EC50,[8],> 195 µM (not active)
NS(=O)(=O)c1ccc(N/N=C2/CCCCC2C2CCCCC2)c([N+](=O)[O-])c1 (configuration not stated),EC50,[13],3.34 µM (active)
same,EC50,[14],7.92 µM (inconclusive)
same,EC50,[15],7.18 µM (active)
same,AC50,[9],7.29 µM (active)
NC(=S)N/N=C/c1cc([N+](=O)[O-])ccc1OCCOc1ccccc1,EC50,[8],52.6 µM (active)
CCOC(=O)N/N=C\c1ccc(C)s1,EC50,[8],> 195 µM (not active)
CC(=O)N1CCN(C)CC1,AC50,[4],31.6 µM (inconclusive)
CCOC(=O)c1ncn2c1CN(C)C(=O)c1cc(F)ccc1-2 [FLUMAZENIL],AC50,[4],39.8 µM (inconclusive)
